The values that follow come from patent US20230072683A1, “PYRIDO-PYRIMIDIN DERIVATIVES AND PHARMACEUTICAL COMPOSITION, FOR USE IN PREVENTING OR TREATING PI3 KINASE RELATED DISEASES, COMPRISING SAME AS ACTIVE INGREDIENT” (BORYUNG PHARMACEUTICAL CO., LTD, priority 2019, published 2023).

For one experiment, the target named is DNA-PK(h) (Homo sapiens, UniProt P78527). The experiment is described as follows: Evaluation of inhibitory activity against DNA-PK (HTRF kinase assay, GST-cMyc-p53 substrate). To be noted: for inhibition at 0.01 µM: compound concentration 0.01 μM, read-out: EXP_VALUE(% Inhibition) DNA-PK(h) 0.01 μM; for inhibition at 0.1 µM: read-out: EXP_VALUE(% Inhibition) DNA-PK(h) 0.1 μM. It is filed as biochemical. The method in brief:
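p53 Ser15 phosphorylation by human DNA-PK was measured by time-resolved FRET ratio (665/620 nm ×10000) using Eu-labelled anti-phospho-Ser15 and d2 anti-GST antibodies. Substrate GST-cMyc-p53 at 50 μM; Mg/ATP-initiated, 30 min at room temperature, EDTA stop.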

Experiment [1] deals with PI3K-δ (PI3K(p1108/p857) (h)) (Homo sapiens, UniProt O00329). The experiment is described as follows: Evaluation of inhibitory activity against PI3K-δ (HTRF kinase assay). It is filed as biochemical. Particulars: for inhibition at 0.01 µM: compound concentration 0.01 μM, read-out: EXP_VALUE(% Inhibition) PI3K-δ 0.01 μM; for inhibition at 0.1 µM: read-out: EXP_VALUE(% Inhibition) PI3K-δ 0.1 μM. In short, it runs like this:
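HTRF read-out (665/620 nm ratio ×10000) used Eu-labelled anti-GST, GST-tagged GRP1 PH domain and streptavidin-allophycocyanin after EDTA/PIP3 stop.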
Background: TR-FRET usually uses a lanthanide donor and a delayed reading to cut background.

Molecules are shown by their SMILES. Like-named read-outs stand apart in the source and are kept apart here.

Sequence of PI3K-δ (PI3K(p1108/p857) (h)) (O00329 whole entry, the tested form may be a part): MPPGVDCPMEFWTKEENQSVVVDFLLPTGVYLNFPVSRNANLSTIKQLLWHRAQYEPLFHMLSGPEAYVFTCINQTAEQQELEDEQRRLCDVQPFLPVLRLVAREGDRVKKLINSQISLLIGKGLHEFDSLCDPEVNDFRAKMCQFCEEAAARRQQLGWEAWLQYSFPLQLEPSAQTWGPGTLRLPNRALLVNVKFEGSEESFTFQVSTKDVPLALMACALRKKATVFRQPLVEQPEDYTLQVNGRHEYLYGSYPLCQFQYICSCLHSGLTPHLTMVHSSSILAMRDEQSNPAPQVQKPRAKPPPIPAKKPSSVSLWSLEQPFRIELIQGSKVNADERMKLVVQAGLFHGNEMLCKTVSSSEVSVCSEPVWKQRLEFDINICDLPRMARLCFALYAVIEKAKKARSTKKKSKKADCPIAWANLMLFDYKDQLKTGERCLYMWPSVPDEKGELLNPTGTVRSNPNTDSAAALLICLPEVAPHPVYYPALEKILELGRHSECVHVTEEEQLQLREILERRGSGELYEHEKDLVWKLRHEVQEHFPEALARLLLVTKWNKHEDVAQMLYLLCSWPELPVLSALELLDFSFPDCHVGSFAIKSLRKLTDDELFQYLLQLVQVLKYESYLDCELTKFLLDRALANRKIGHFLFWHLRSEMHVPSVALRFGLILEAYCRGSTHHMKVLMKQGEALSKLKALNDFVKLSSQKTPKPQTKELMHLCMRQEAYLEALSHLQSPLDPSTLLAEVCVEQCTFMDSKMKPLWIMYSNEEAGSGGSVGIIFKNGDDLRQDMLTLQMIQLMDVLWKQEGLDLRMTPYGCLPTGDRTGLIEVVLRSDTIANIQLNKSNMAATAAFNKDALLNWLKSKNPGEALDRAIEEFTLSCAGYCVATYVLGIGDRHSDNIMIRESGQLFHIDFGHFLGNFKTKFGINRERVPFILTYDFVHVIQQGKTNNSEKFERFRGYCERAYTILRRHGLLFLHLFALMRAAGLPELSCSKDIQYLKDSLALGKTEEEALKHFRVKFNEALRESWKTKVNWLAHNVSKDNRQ
Sequence of PI3K-δ (PI3K(p1108/p857) (h)) (P27986 whole entry partner, the tested form may be a part): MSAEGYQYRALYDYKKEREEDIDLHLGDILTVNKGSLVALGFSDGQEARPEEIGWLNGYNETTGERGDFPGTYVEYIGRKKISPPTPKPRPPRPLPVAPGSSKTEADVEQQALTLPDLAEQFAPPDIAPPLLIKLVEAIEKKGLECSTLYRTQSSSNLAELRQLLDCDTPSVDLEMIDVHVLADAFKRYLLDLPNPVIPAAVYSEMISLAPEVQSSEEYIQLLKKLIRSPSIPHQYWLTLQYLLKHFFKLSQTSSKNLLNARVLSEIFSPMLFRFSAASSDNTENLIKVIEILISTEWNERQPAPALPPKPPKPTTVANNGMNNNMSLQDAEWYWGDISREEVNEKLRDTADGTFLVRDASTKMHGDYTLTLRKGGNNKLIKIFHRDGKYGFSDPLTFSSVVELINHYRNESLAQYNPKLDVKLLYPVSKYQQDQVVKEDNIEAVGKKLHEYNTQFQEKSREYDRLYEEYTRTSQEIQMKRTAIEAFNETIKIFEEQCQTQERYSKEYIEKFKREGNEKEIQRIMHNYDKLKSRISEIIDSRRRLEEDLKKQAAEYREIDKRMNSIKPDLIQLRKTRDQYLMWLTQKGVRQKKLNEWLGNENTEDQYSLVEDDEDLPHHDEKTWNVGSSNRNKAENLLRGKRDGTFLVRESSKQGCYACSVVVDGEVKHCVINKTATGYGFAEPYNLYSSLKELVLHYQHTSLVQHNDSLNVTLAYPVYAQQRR

With `C[C@H](Nc1ncnc2[nH]ccc(=O)c12)c1c(Cl)c2cccc(NS(C)(=O)=O)c2c(=O)n1-c1ccccc1` [Example 300, (S)—N-(4-chloro-1-oxo-3-(1-((5-oxo-5,8-dihydropyrido[2,3-d]pyrimidin-4-yl)amino)ethyl)-2-phenyl-1,2-dihydroisoquinolin-8-yl) methanesulfonamide], the inhibition at 0.01 µM is 44% at DNA-PK(h) and 63% in experiment [1].
In the same order, the values of `C[C@H](Nc1ncnc2[nH]ccc(=O)c12)c1c(Cl)c2cccc(NS(=O)(=O)c3ccc(F)cc3)c2c(=O)n1-c1ccccc1` [Example 303, (S)—N(4-chloro-1-oxo-3-(1-((5-oxo-5,8-dihydropyrido[2,3-d]pyrimidin-4-yl)amino)ethyl)-2-phenyl-1,2-dihydroisoquinolin-8-yl)-4-fluorobenzenesulfonamide] are 6% and 12%.
With `C[C@H](Nc1ncnc2[nH]ccc(=O)c12)c1c(Cl)c2cccc(Sc3nccs3)c2c(=O)n1-c1ccccc1` [Example 417, (S)-4-((1-(4-chloro-1-oxo-2-phenyl-8-(thiazol-2-ylthio)-1,2-dihydroisoquinolin-3-yl)ethyl)amino)pyrido[2,3-d]pyrimidin-5(8H)-one], the inhibition at 0.1 µM on DNA-PK(h) (compound at 0.1 μM) stood at 48%; in experiment [1] (compound at 0.1 μM), 26%.
For `CC(C)S(=O)(=O)c1cccc2c(Cl)c([C@H](C)Nc3ncnc4[nH]ccc(=O)c34)n(-c3ccccc3)c(=O)c12` [Example 416, (S)-4-((1-(4-chloro-8-(isopropylsulfonyl)-1-oxo-2-phenyl-1,2-dihydroisoquinolin-3-yl)ethyl)amino)pyrido[2,3-d]pyrimidin-5(8H)-one] the same measures were 52% and 13%.
Take `COc1cnc(-n2ccc(=O)c3c(N[C@@H](C)c4c(Cl)c5ccccc5c(=O)n4-c4ccccc4)ncnc32)nc1` [Example 43, (S)-4-((1-(4-chloro-1-oxo-2-phenyl-1,2-dihydroisoquinolin-3-yl)ethyl)amino)-8-(5-methoxypyrimidin-2-yl)pyrido[2,3-d]pyrimidin-5(8H)-one]: the figures for the inhibition at 0.01 µM (on DNA-PK(h); in experiment [1]) were 3% and 9%, respectively.
With `C[C@H](Nc1ncnc2[nH]ccc(=O)c12)c1c(Cl)c2cccc(-c3cnc(S(C)(=O)=O)nc3)c2c(=O)n1-c1ccccc1` [Example 392, (S)-4-((1-(4-chloro-8-(2-(methylsulfonyl)pyrimidin-5-yl)-1-oxo-2-phenyl-1,2-dihydroisoquinolin-3-yl)ethyl)amino)pyrido[2,3-d]pyrimidin-5(8H)-one], the inhibition at 0.1 µM came to 45% at DNA-PK(h) (compound at 0.1 μM) and 94% in experiment [1] (compound at 0.1 μM).
For `C[C@H](Nc1ncnc2[nH]ccc(=O)c12)c1c(Cl)c2cccc(-c3cnc(-c4cccs4)nc3)c2c(=O)n1-c1ccccc1` [Example 377, (S)-4-((1-(4-chloro-1-oxo-2-phenyl-8-(2-(thiophen-2-yl)pyrimidin-5-yl)-1,2-dihydroisoquinolin-3-yl)ethyl)amino)pyrido[2,3-d]pyrimidin-5(8H)-one] the same measures were 30% and 59%.
In the same order, the values of `C[C@H](Nc1ncnc2[nH]ccc(=O)c12)c1c(Cl)c2cccc(Sc3ccccn3)c2c(=O)n1-c1ccccc1` [Example 412, (S)-4-((1-(4-chloro-1-oxo-2-phenyl-8-(pyridin-2-ylthio)-1,2-dihydroisoquinolin-3-yl)ethyl)amino)pyrido[2,3-d]pyrimidin-5(8H)-one] are 15% and 29%.
Regarding `Cc1cc(F)ccc1-c1cccc2c(Cl)c([C@H](C)Nc3ncnc4[nH]ccc(=O)c34)n(-c3ccccc3)c(=O)c12` [Example 131, (S)-4-((1-(4-chloro-8-(4-fluoro-2-methylphenyl)-1-oxo-2-phenyl-1,2-dihydroisoquinolin-3-yl)ethyl)amino)pyrido[2,3-d]pyrimidin-5(8H)-one], the inhibition at 0.01 µM was 54% on DNA-PK(h) and 81% in experiment [1]. Besides, the inhibition at 0.1 µM at DNA-PK(h) (compound concentration 0.1 μM) was determined as 92%; in experiment [1] (compound concentration 0.1 μM), 91%.
With `C[C@H](Nc1ncnc2[nH]ccc(=O)c12)c1c(Cl)c2cccc(Nc3ccccn3)c2c(=O)n1-c1ccccc1` [Example 348, (S)-4-((1-(4-chloro-1-oxo-2-phenyl-8-(pyridin-2-ylamino)-1,2-dihydroisoquinolin-3-yl)ethyl)amino)pyrido[2,3-d]pyrimidin-5(8H)-one], the inhibition at 0.01 µM at DNA-PK(h) is -1%; in experiment [1], 5%.
For the compound `C[C@H](Nc1ncnc2[nH]ccc(=O)c12)c1c(Cl)c2cccc(-c3cnc(C4(O)CCC4)nc3)c2c(=O)n1-c1ccccc1` [Example 438, (S)-4-((1-(4-chloro-8-(2-(1-hydroxycyclobutyl)pyrimidin-5-yl)-1-oxo-2-phenyl-1,2-dihydroisoquinolin-3-yl)ethyl)amino)pyrido[2,3-d]pyrimidin-5(8H)-one], the values for the inhibition at 0.1 µM (at DNA-PK(h) (compound at 0.1 μM); in experiment [1] (compound at 0.1 μM)) were 64% and 87%, respectively.
For `C[C@H](Nc1ncnc2[nH]ccc(=O)c12)c1c(Cl)c2cccc(-c3cnc(-c4ccco4)nc3)c2c(=O)n1-c1ccccc1` [Example 378, (S)-4-((1-(4-chloro-8-(2-(furan-2-yl)pyrimidin-5-yl)-1-oxo-2-phenyl-1,2-dihydroisoquinolin-3-yl)ethyl)amino)pyrido[2,3-d]pyrimidin-5(8H)-one] the same measures were 18% and 61%.
In the case of `C[C@H](Nc1ncnc2[nH]ccc(=O)c12)c1c(Cl)c2cccc(C#Cc3ccncc3)c2c(=O)n1-c1ccccc1` [Example 306, (S)-4-((1-(4-chloro-1-oxo-2-phenyl-8-(pyridin-4-ylethynyl)-1,2-dihydroisoquinolin-3-yl)ethyl)amino)pyrido[2,3-d]pyrimidin-5(8H)-one], the inhibition at 0.01 µM at DNA-PK(h) was determined as 75%; in experiment [1] it was 57%. In addition, the inhibition at 0.1 µM on DNA-PK(h) (compound concentration 0.1 μM) worked out at 95%; in experiment [1] (compound concentration 0.1 μM), 105%.
For `Cc1ccc(-c2cccc3c(Cl)c([C@H](C)Nc4ncnc5[nH]ccc(=O)c45)n(-c4ccccc4)c(=O)c23)cn1` [Example 257, (S)-4-((1-(4-chloro-8-(6-methylpyridin-3-yl)-1-oxo-2-phenyl-1,2-dihydroisoquinolin-3-yl)ethyl)amino)pyrido[2,3-d]pyrimidin-5(8H)-one], the figures for the inhibition at 0.01 µM (on DNA-PK(h); in experiment [1]) were 75% and 68%, respectively. For the same compound, the inhibition at 0.1 µM (at DNA-PK(h) (compound concentration 0.1 μM); in experiment [1] (compound concentration 0.1 μM)) was 98% each time.
Take `C[C@H](Nc1ncnc2[nH]ccc(=O)c12)c1c(Cl)c2cccc(Nc3ccccc3)c2c(=O)n1-c1ccccc1` [Example 343, (S)-4-((1-(4-chloro-1-oxo-2-phenyl-8-(phenylamino)-1,2-dihydroisoquinolin-3-yl)ethyl)amino)pyrido[2,3-d]pyrimidin-5(8H)-one]: the results for the inhibition at 0.01 µM (on DNA-PK(h); in experiment [1]) were -1% and 8%, respectively.
Turning to `Cc1ccc2c(c1)CN(c1cccc3c(Cl)c([C@H](C)Nc4ncnc5[nH]ccc(=O)c45)n(-c4ccccc4)c(=O)c13)CC2` [Example 329, (S)-4′-chloro-7-methyl-3′-(1-((5-oxo-5,8-dihydropyrido[2,3-d]pyrimidin-4-yl)amino)ethyl)-2′-phenyl-3,4-dihydro-1H-[2,8′-biisoquinolin]-1′(2′H)-one], the inhibition at 0.01 µM on DNA-PK(h) turned out to be 4%; in experiment [1], 19%. Moreover, the inhibition at 0.1 µM was found to be 23% on DNA-PK(h) (compound concentration 0.1 μM) and 55% in experiment [1] (compound concentration 0.1 μM).
As for `C[C@H](Nc1ncnc2[nH]ccc(=O)c12)c1c(Cl)c2cccc(C(O)C(C)(C)C)c2c(=O)n1-c1ccccc1` (stereo partly drawn) [Example 357, 4-(((1S)-1-(4-chloro-8-(1-hydroxy-2,2-dimethylpropyl)-1-oxo-2-phenyl-1,2-dihydroisoquinolin-3-yl)ethyl)amino)pyrido[2,3-d]pyrimidin-5(8H)-one], the figures for the inhibition at 0.01 µM (on DNA-PK(h); in experiment [1]) were 15% and 11%, respectively.
With `C[C@H](Nc1ncnc2[nH]ccc(=O)c12)c1c(Cl)c2cccc(N3CCC(NC(=O)OC(C)(C)C)CC3)c2c(=O)n1-c1ccccc1` [Example 77, tert-butyl(S)-(1-(4-chloro-1-oxo-3-(1-((5-oxo-5,8-dihydropyrido[2,3-d]pyrimidin-4-yl)amino)ethyl)-2-phenyl-1,2-dihydroisoquinolin-8-yl)piperidin-4-yl) carbamate], the inhibition at 0.01 µM is 9% on DNA-PK(h) and 45% in experiment [1]. The values for the inhibition at 0.1 µM (at DNA-PK(h) (compound concentration 0.1 μM); in experiment [1] (compound concentration 0.1 μM)) were 64% and 78%, respectively.
Consider `C[C@H](Nc1ncnc2[nH]ccc(=O)c12)c1c(Cl)c2cccc(-c3ccc(-c4ccccc4)nc3)c2c(=O)n1-c1ccccc1` [Example 115, (S)-4-((1-(4-chloro-1-oxo-2-phenyl-8-(6-phenylpyridin-3-yl)-1,2-dihydroisoquinolin-3-yl)ethyl)amino)pyrido[2,3-d]pyrimidin-5(8H)-one], for which the inhibition at 0.01 µM on DNA-PK(h) was found to be 15%; in experiment [1] it was 78%. Further, the results for the inhibition at 0.1 µM (on DNA-PK(h) (compound concentration 0.1 μM); in experiment [1] (compound concentration 0.1 μM)) were 72% and 96%, respectively.
For the compound `C[C@H](Nc1ncnc2[nH]ccc(=O)c12)c1c(Cl)c2cccc(-c3ccc(N4CCN(C)CC4)cc3)c2c(=O)n1-c1ccccc1` [Example 179, (S)-4-((1-(4-chloro-8-(4-(4-methylpiperazin-1-yl)phenyl)-1-oxo-2-phenyl-1,2-dihydroisoquinolin-3-yl)ethyl)amino)pyrido[2,3-d]pyrimidin-5(8H)-one], the inhibition at 0.01 µM came out at 91% on DNA-PK(h) and 86% in experiment [1].

As a reminder, the inhibition is the drop in the measured response relative to a control, in per cent.
